Read-outs that look alike come from different tables or passages of the source.
Columns and labels:
[1] = test system: Panc-1 pancreatic carcinoma; settings: for Mean Score: tumor scoring system
Experimental: The dosing volume was 0.3 ml per 20 g mouse.
Female NCr-nude mice were implanted subcutaneously with 1 mm^3 Panc-1 pancreatic carcinoma fragments in the flank and sorted into treatment groups of six mice each. […] Dosing was initiated on Day 1. The antitumor compounds were given i.v. at an estimated maximum tolerated dose (MTD) appropriate for each agent on a qd x 1 schedule (single administration of compound). […] The vehicle was administered i.v. to control mice in Group 1 on the qd x 1 schedule.
The mean days of survival is the number of days after which a neoplasm reached a size of 1.5 g and the animal was euthanized. A complete response is obtained if the tumor shrinks to a size smaller than its size on Day 1 of the study.

SKMES lung carcinoma = test: In vivo evaluation of oral administration against SKMES human lung carcinoma xenograft (Example 21); settings: single oral bolus Day 1
Experimental: Female Nu/Nu mice (6-8 weeks of age; implanted with 1 mm^3 SKMES lung carcinoma fragments in the flank) were sorted into treatment groups of six mice each. […] Treatments were administered as a single oral bolus on Day 1, and the study was terminated on Day 60.
(§1) A complete response is obtained if the tumor is not palpable at the end of the study.
The total response rate is defined as the percentage of evaluable animals (excluding deaths due to procedure or toxicity) in a group that experience complete or partial responses at the termination of the study.

HCT116 carcinoma = test system: HCT116 carcinoma
Outline: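 Mice bearing HCT116 tumours received a single i.v. maximum tolerated dose per compound, formulated in 5% ethanol, 5% Cremophor, 90% isotonic saline. Study ended on Day 60; complete response meant no palpable tumour at study end.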

[2] = test system: NCI-H1299 (H1299) carcinoma; test: In vivo evaluation against NCI-H1299 human lung carcinoma xenograft (i.v., Example 11)
Experimental: Antitumor compounds were formulated for an i.v. dosing regime prepared in the following vehicle: 10% ethanol, 10% Cremophor and 80% isotonic saline.
Vehicle control animals were dosed twice intravenously with half the total volume being given separated by one hour. The study was terminated on Day 60.
as §1
A tumor scoring system was designed to provide a more quantitative ranking of efficacy (therapeutic potential) among the antitumor agents evaluated against the different human solid tumor xenografts. Each mouse in a study was given a score of from 1 to 10 at the end of the study. The scores can be summarized as follows:
The individual score for each mouse was averaged into a mean score for each treatment group. […]
The treatment protocol for the H1299 test was identical to the SK-MES test protocol. […]

[3] = number of mice, Taxol 15 mg/kg i.p. qd x 5, 6 mice, Day 63
[4] = number of mice, i.v. qd x 1, mg/kg: Taxol 24, 0854 46.6, 1011 107.6, 6 mice/group, Day 63
[5] = number of mice, mg/kg: Taxol 40, 0687 228, 0503 73, 6 mice/group, Day 60
[6] = HCT116, Taxol i.p. 18 mg/kg qd x 5 (Group 3)
[7] = number of 5 mice, Taxol 18 mg/kg i.p. qd x 5
[8] = i.v. split dose qd x 1, six mice per group

## CC(=O)O[C@H]1C(=O)[C@@]2(C)[C@H]([C@H](OC(=O)c3ccccc3)[C@]3(O)C[C@H](OC(=O)[C@H](O)[C@@H](NC(=O)c4ccccc4)c4ccccc4)C(C)=C1C3(C)C)[C@]1(OC(C)=O)CO[C@@H]1C[C@@H]2O [Taxol, paclitaxel, reference compound]
[1]; Panc-1 (Example 18), Taxol 24 mg/kg i.v. qd x 1, four mice, tumor 1.5 g, ended Day 63
  MDS: 34.7 days
[1]; Panc-1 (Example 18), Taxol i.p. 15 mg/kg qd x 5 (Group 3), six animals
  Toxic Deaths: four
[1]; Panc-1 (Example 18), i.v. qd x 1, Taxol 24 mg/kg split, six mice per group
  Stable Disease: one
[1]; Panc-1 (Example 18), i.v. qd x 1, six mice per group
  toxic deaths / toxic lethalities: One
[1]; mean days of survival until neoplasm reached 1.5 g, i.v. qd x 1, mg/kg: Taxol 24, 0854 46.6, 1011 107.6, 6 mice/group, terminated Day 63
  MDS (n): 34.7 ± 3.4 days
[1]; number of mice, Taxol 15 mg/kg i.p. qd x 5, 6 mice
  Toxic Deaths: 4
[1]; [3]
  Complete Response: 0
  Partial Response: 1
  Stable Disease: 0
  Survivors: 1
[1]; number of mice, i.v. qd x 1, mg/kg: Taxol 24, 0854 46.6, 1011 107.6, 6 mice/group
  Toxic Deaths: 1
[1]; [4]
  Complete Response: 0
  Partial Response: 0
  Stable Disease: 1
  Survivors: 1
[1]; Taxol 15 mg/kg i.p. qd x 5, 6 mice
  Mean Score: 1.2 ± 1.2
[1]; i.v. qd x 1, mg/kg: Taxol 24, 0854 46.6, 1011 107.6, 6 mice/group
  Mean Score: 2.2 ± 0.8
SKMES lung carcinoma; SKMES, 0687 228 mg/kg, 0503 73 mg/kg, Taxol 40 mg/kg
  antitumor activity: no statistically significant response
SKMES lung carcinoma; complete or partial responses among evaluable animals, mg/kg: Taxol 40, 0687 228, 0503 73
  % Total Response: 0%
SKMES lung carcinoma; mean days of survival until neoplasm reached 2.0 g, mg/kg: Taxol 40, 0687 228, 0503 73, 6 mice/group, terminated Day 60
  MDS (n): 13.2 ± 1.4 (6) days
SKMES lung carcinoma; number of mice, mg/kg: Taxol 40, 0687 228, 0503 73, 6 mice/group
  Toxic Deaths: 0
SKMES lung carcinoma; [5]
  Complete Response: 0
  Partial Response: 0
  Stable Disease: 0
  Survivors: 0
HCT116 carcinoma; HCT116, Taxol 36 mg/kg i.v. qd x 1
  increase in survival compared to control Group 1: 24%
HCT116 carcinoma; [6]
  Partial Response: one
  survival extension compared to Group 1 control mice: 84%
HCT116 carcinoma; HCT116, i.v. qd x 1 (compounds single MTD; Taxol 36 mg/kg split), days until tumor 2.0 g, ended Day 60
  MDS: 27.5 days
HCT116 carcinoma; HCT116, i.v. qd x 1, five mice per group
  Stable Disease: one
HCT116 carcinoma; Taxol 18 mg/kg i.p. qd x 5, 5 mice
  Mean Score: 3.6 ± 1.4
HCT116 carcinoma; i.v. qd x 1 at MTD, 5 mice/group, Day 60, doses as in E3
  Mean Score: 2.2 ± 0.5
HCT116 carcinoma; mean days of survival until tumor reached 2.0 g, i.v. qd x 1 at MTD, 5 mice/group, study ended Day 60, mg/kg: Taxol 36 (split doses), 0503 72.6, 0536 49, 0663 159, 0670 123, 0687 159, 0706 108, 0908 159, 0947 76.9, 0951 72.6, 0983 72.6, 0999 49, 1003 49, 1011 108
  MDS (n): 27.5 ± 1.7 (4) days
HCT116 carcinoma; mouse, in vivo, iv
  tolerability: well-tolerated
HCT116 carcinoma; number of 5 mice, tumor did not reach 2.0 g by end of study, i.v. qd x 1 at MTD, Day 60, doses as in E3
  Stable Disease: 1
HCT116 carcinoma; number of 5 mice, tumor not palpable at end of study, i.v. qd x 1 at MTD, Day 60, doses as in E3
  Complete Response: 0
HCT116 carcinoma; number of 5 mice, tumor smaller than on Day 1, i.v. qd x 1 at MTD, Day 60, doses as in E3
  Partial Response: 0
HCT116 carcinoma; [7]
  Complete Response: 0
  Partial Response: 1
  Stable Disease: 0
  Survivors: 1
  Toxic Deaths: 0
HCT116 carcinoma; number of 5 mice, i.v. qd x 1 at MTD, Day 60, doses as in E3
  Survivors: 1
HCT116 carcinoma; number of 5 mice, i.v. qd x 1 at MTD, Day 60, mg/kg: Taxol 36 (split doses), 0503 72.6, 0536 49, 0663 159, 0670 123, 0687 159, 0706 108, 0908 159, 0947 76.9, 0951 72.6, 0983 72.6, 0999 49, 1003 49, 1011 108
  Toxic Deaths: 0
[2]; Taxol 36 mg/kg i.v., five animals
  survival extension compared to vehicle-treated animals: 10%
[2]; i.v. MTD in two half doses one hour apart, qd x 1, Taxol 36 mg/kg, 0503 72.1 mg/kg, ended Day 60
  MDS (n): 27.0 ± 4.6 (5) days
[2]; i.v. split dose qd x 1
  Complete Response: 0
  Stable Disease: 0
  antitumor activity: not active
[2]; [8]
  Survivors: 1
  Toxic Deaths: 0
[2]; tumor score 1 to 10 per mouse, group mean
  Mean Score: 2.7 ± 1.3

Reference: patent EP1285920A1, “C10 Ester sustituted taxanes as antitumor agents” (Florida State University Research Foundation, Inc., priority 2001, dated 2003)
